Test results from patent EP0555116B1, “Compositions based on antiseptics and their applications” (HUTCHINSON, priority 1992, dated 1993).

Tests used:
[1] = test system: Candida albicans ATCC 1031; assay: Growth inhibition test (DGHM, Essai 2, Tables A-C), 72 h at 37°C; non/A/B/C = without or with inactivating substances A, B, C; format: cell-based
Procedure: Un autre essai a été réalisé à partir des solutions suivantes : • 100 ml d'une solution à 0,1 % de digluconate de chlorhexidine (pH 6) et • 100 ml d'une solution à 0,1 % de Bardac 22®. […]
(§1) Les tests ont été réalisés conformément au protocole décrit dans le Chapitre I/2.1 et 2.2 de Richtlinien für die Prüfung und Bewertung chemischer Desinfektionsverfahren der DGHM, Stand 1.1., 1981).
Les Tableaux A, B et C illustrent respectivement l'activité bactéricide et fongicide d'une solution aqueuse à 0,1 % de digluconate de chlorhexidine, d'une solution aqueuse à 0,1 % de Bardac 22® et d'un mélange à part égale des deux composés. Les protocoles dont ces Tableaux illustrent les résultats comprennent une incubation de 72 heures à 37°C et l'utilisation, comme témoins, des substances inactivantes suivantes : A : Tween® 80 3 % + lécithine 0,3 % + cystéine 0,1 %; B : Tween® 80 3 % + saponine 3 % + cystéine 0,1 % + histidine 0,1 %; C : Tween® 80 3 % + lécithine 0,3 % + histidine 0,1 % + thiosulfate de sodium 0,5 %.
Dans ces Tableaux, le signe "+" indique une croissance et le signe "-" l'absence de croissance.

[2] = test system: cellules fibroblastiques humaines; assay: Cytotoxicity control of the products on human fibroblast cultures (10 tubes, 3 days); format: cell-based; details: solution à 0,05 %; pur et dilutions 10^-1 à 10^-3, 0,1 ml dans 1 ml
Excerpt: On réalise des contrôles de cytotoxicité des produits pour les cultures cellulaires utilisées dans les tests, c'est-à-dire les cellules fibroblastiques humaines.
Les cellules sont cultivées en milieu de Dulbecco enrichi en sérum de veau foetal à 10 %; au moment de leur utilisation, les cellules sont lavées et on utilise le même milieu de culture, mais dépourvu de sérum de veau.
Pour chaque produit testé ou chaque composition, on a utilisé 10 tubes de culture cellulaire et après inoculation du produit, les tubes ont été surveillés pendant trois jours.
Chaque produit a été successivement utilisé pur, et aux dilutions 10^-1, 10^-2, 10^-3 et ajouté aux tubes de culture contenant 1 ml de milieu nutritif, sous le volume de 0,1 ml.

[3] = test system: S. aureus ATCC 6538; assay: Disinfection time test (Essai 2, Tables D-F), reaction at 22°, subcultures 72 h at 37°C; format: cell-based, Staphylococcus aureus
Procedure: Un autre essai a été réalisé à partir des solutions suivantes : • 100 ml d'une solution à 0,1 % de digluconate de chlorhexidine (pH 6) et • 100 ml d'une solution à 0,1 % de Bardac 22®.
as §1
Les tests dont les résultats sont illustrés aux Tableaux D, E et F ont été réalisés à une température de réaction de 22° avec une incubation des sous-cultures 72 heures à 37°C avec comme substances inactivantes : Tween® 80 3 % + saponine 3 % + cystéine 0,1 % + histidine 0,1 %; ces Tableaux illustrent respectivement l'activité bactéricide et fongicide d'une solution aqueuse à 0,1 % de digluconate de chlorhexidine, d'une solution aqueuse à 0,1 % de Bardac 22® et d'un mélange à part égale des deux composés et montrent l'action des antiseptiques précités, en fonction du temps de contact, et font apparaître la même synergie d'action de l'association que ci-dessus, dans la mesure où l'association des deux composés permet de diminuer significativement leur concentration, pour l'obtention d'un même effet. TABLEAU D

SMILES: [H]/N=C(\N/C(=N/[H])NCCCCCCNC(=N)NC(=N)Nc1ccc(Cl)cc1)Nc1ccc(Cl)cc1 [Chlorhexidine, digluconate de chlorhexidine, reference compound]
- croissance ([1]; Conc. 0,1 % (vol/vol), A): +
- croissance ([1]; Conc. 0,1 % (vol/vol), B): +
- croissance ([1]; Conc. 0,1 % (vol/vol), C): +
- croissance ([1]; Conc. 0,1 % (vol/vol), non): +
- croissance ([1]; Conc. 0,05 % (vol/vol), A): +
- croissance ([1]; Conc. 0,5 % (vol/vol), A): +
- croissance ([1]; Conc. 0,05 % (vol/vol), B): +
- croissance ([1]; Conc. 0,5 % (vol/vol), B): +
- croissance ([1]; Conc. 0,05 % (vol/vol), C): +
- croissance ([1]; Conc. 0,5 % (vol/vol), C): +
- croissance ([1]; Conc. 0,05 % (vol/vol), non): +
- croissance ([1]; Conc. 0,5 % (vol/vol), non): +
- croissance ([1]; Conc. 1,0 % (vol/vol), A): +
- croissance ([1]; Conc. 1,0 % (vol/vol), B): +
- croissance ([1]; Conc. 1,0 % (vol/vol), C): +
- croissance ([1]; Conc. 1,0 % (vol/vol), non): -
- croissance ([1]; Conc. 0,00625 % (vol/vol), A): +
- croissance ([1]; Conc. 0,00625 % (vol/vol), B): +
- croissance ([1]; Conc. 0,00625 % (vol/vol), C): +
- croissance ([1]; Conc. 0,00625 % (vol/vol), non): +
- croissance ([1]; Conc. 0,0125 % (vol/vol), A): +
- croissance ([1]; Conc. 0,0125 % (vol/vol), B): +
- croissance ([1]; Conc. 0,0125 % (vol/vol), C): +
- croissance ([1]; Conc. 0,0125 % (vol/vol), non): +
- croissance ([1]; Conc. 0,025 % (vol/vol), A): +
- croissance ([1]; Conc. 0,025 % (vol/vol), B): +
- croissance ([1]; Conc. 0,025 % (vol/vol), C): +
- croissance ([1]; Conc. 0,025 % (vol/vol), non): +
- concentration en substance active inhibant la croissance ([1]; antiseptique seul): 0,001%
- toxicité pour les cultures cellulaires [2]: aucune toxicité
- croissance ([3]; Conc. 0,1 % (vol/vol), 1 min): +
- croissance ([3]; Conc. 0,1 % (vol/vol), 3 min): +
- croissance ([3]; Conc. 0,1 % (vol/vol), 5 min): +
- croissance ([3]; Conc. 0,1 % (vol/vol), 15 min): +
- croissance ([3]; Conc. 0,1 % (vol/vol), 30 min): +
- croissance ([3]; Conc. 0,1 % (vol/vol), 60 min): +
- croissance ([3]; Conc. 0,05 % (vol/vol), 1 min): +
- croissance ([3]; Conc. 0,5 % (vol/vol), 1 min): +
- croissance ([3]; Conc. 0,05 % (vol/vol), 3 min): +
- croissance ([3]; Conc. 0,5 % (vol/vol), 3 min): +
- croissance ([3]; Conc. 0,05 % (vol/vol), 5 min): +
- croissance ([3]; Conc. 0,5 % (vol/vol), 5 min): +
- croissance ([3]; Conc. 0,05 % (vol/vol), 15 min): +
- croissance ([3]; Conc. 0,5 % (vol/vol), 15 min): +
- croissance ([3]; Conc. 0,05 % (vol/vol), 30 min): +
- croissance ([3]; Conc. 0,5 % (vol/vol), 30 min): +
- croissance ([3]; Conc. 0,05 % (vol/vol), 60 min): +
- croissance ([3]; Conc. 0,5 % (vol/vol), 60 min): +
- croissance ([3]; Conc. 1 % (vol/vol), 1 min): +
- croissance ([3]; Conc. 1 % (vol/vol), 3 min): +
- croissance ([3]; Conc. 1 % (vol/vol), 5 min): +
- croissance ([3]; Conc. 1 % (vol/vol), 15 min): +
- croissance ([3]; Conc. 1 % (vol/vol), 30 min): +
- croissance ([3]; Conc. 1 % (vol/vol), 60 min): +
- croissance ([3]; Conc. 5 % (vol/vol), 1 min): +
- croissance ([3]; Conc. 5 % (vol/vol), 3 min): +
- croissance ([3]; Conc. 5 % (vol/vol), 5 min): +
- croissance ([3]; Conc. 5 % (vol/vol), 15 min): +
- croissance ([3]; Conc. 5 % (vol/vol), 30 min): +
- croissance ([3]; Conc. 5 % (vol/vol), 60 min): +
- croissance ([3]; Conc. 10 % (vol/vol), 1 min): +
- croissance ([3]; Conc. 10 % (vol/vol), 3 min): +
- croissance ([3]; Conc. 10 % (vol/vol), 5 min): +
- croissance ([3]; Conc. 10 % (vol/vol), 15 min): +
- croissance ([3]; Conc. 10 % (vol/vol), 30 min): +
- croissance ([3]; Conc. 10 % (vol/vol), 60 min): -
- croissance ([3]; Conc. 25 % (vol/vol), 1 min): +
- croissance ([3]; Conc. 25 % (vol/vol), 3 min): +
- croissance ([3]; Conc. 25 % (vol/vol), 5 min): +
- croissance ([3]; Conc. 25 % (vol/vol), 15 min): +
- croissance ([3]; Conc. 25 % (vol/vol), 30 min): -
- croissance ([3]; Conc. 25 % (vol/vol), 60 min): -
